From article PMC10233829 (ACS Omega, 2023)
Converted amounts (≈) assume the structure as drawn.

Experiments:
S. aureus ATCC 29213 = test: MIC, twofold microdilution, standard strain; format: cell-based; settings: Staphylococcus aureus, ATCC29213, 18 h
S. epidermidis 4341 = test: MIC, twofold microdilution, clinical strain; format: cell-based; settings: Staphylococcus epidermidis, 18 h
PC3 cells = test: MTT assay, cytotoxic activity; format: cell-based, human; settings: Homo sapiens, PC-3, 72 h, MTT, 72 h
Procedure: Metastatic prostate cancer (PC3) and human immortal keratinocyte (HaCaT) cell lines were purchased from the American Type Culture Collection (ATCC, Rockville, MD, USA) and cultured in MEM (minimal essential medium, Thermo Sci, USA), RPMI 1640 (Roswell Park Memorial Institute, Biowest SAS, France), and DMEM (Dulbecco’s Modified Eagle’s Medium, Biowest SAS, France). Cells were seeded in 6 mL medium in a tissue culture flask (50 mL) in a 37 °C/5% CO2 humidified incubator. […] MTT analysis was performed according to a previous study.[59] Untreated cells were used as controls. Cell absorbance results were inserted into the formula for the relative MTT level (%). It allows to calculate the viability of cells under the influence of the tested compounds. Cell viability was expressed as the percentage of MTT reduction in cells treated with tested compounds compared to the control sample. The relative MTT level was calculated using the formula [100%] = A/B × 100% where A—the test sample absorbance and B—the control sample absorbance.

[1] = system: P. aeruginosa ATCC 15442 and E. coli ATCC 25922; test: MIC, standard Gram-negative rods as a panel; format: cell-based; settings: P. aeruginosa ATCC 15442, E. coli ATCC 25922; read-out: MIC against standard Gram-negative rods (range over strains)
S. aureus NCTC 4163 = test: MIC, twofold microdilution, standard strain; format: cell-based; settings: Staphylococcus aureus, NCTC4163, 18 h
S. aureus 5595 = test: MIC, twofold microdilution, clinical strain; format: cell-based; settings: Staphylococcus aureus, 18 h
[2] = system: S. epidermidis ATCC 35984; test: MIC, twofold microdilution, standard strain; format: cell-based; settings: Staphylococcus epidermidis, ATCC35984, 18 h
S. aureus 180 = test: MIC, twofold microdilution, clinical strain; format: cell-based; settings: Staphylococcus aureus, 18 h
E. coli 600 = test: MIC, twofold microdilution, clinical strain; format: cell-based, Escherichia coli; settings: Escherichia coli, 600, 18 h
S. aureus ATCC 25923 = test: MIC, twofold microdilution, standard strain; format: cell-based; settings: Staphylococcus aureus, ATCC25923, 18 h
[3] = MTT assay, cytotoxic activity; format: cell-based; settings: human, HaCaT cells (immortal keratinocytes); MTT, 72 h, normal cell line; read-out: IC50 HaCaT
Procedure: Cells were seeded in 6 mL medium in a tissue culture flask (50 mL) in a 37 °C/5% CO2 humidified incubator. […] MTT analysis was performed according to a previous study.[59] Untreated cells were used as controls. Cell absorbance results were inserted into the formula for the relative MTT level (%). It allows to calculate the viability of cells under the influence of the tested compounds. Cell viability was expressed as the percentage of MTT reduction in cells treated with tested compounds compared to the control sample. The relative MTT level was calculated using the formula [100%] = A/B × 100% where A—the test sample absorbance and B—the control sample absorbance.

S. epidermidis KR4243/1 = test: MIC, twofold microdilution, clinical strain; format: cell-based; settings: Staphylococcus epidermidis, 18 h
S. aureus T5595 = test: MIC, twofold microdilution, clinical strain; format: cell-based, Staphylococcus aureus; settings: Staphylococcus aureus, T5595, 18 h
S. epidermidis 5253 = test: MIC, twofold microdilution, clinical strain; format: cell-based, Staphylococcus epidermidis; settings: Staphylococcus epidermidis, 5253, 18 h
[4] = system: Staphylococci (standard strains); test: MIC, standard Gram-positive strains as a panel; format: cell-based, S. aureus, S. epidermidis; settings: standard Gram-positive strains of Table 1; read-out: MIC toward standard Staphylococci (range over strains)
P. aeruginosa ATCC 15442 = test: MIC, twofold microdilution, standard strain; format: cell-based, Pseudomonas aeruginosa; settings: Pseudomonas aeruginosa, ATCC15442; standard strain, 18 h
E. coli ATCC 25922 = test: MIC, twofold microdilution, standard strain; format: cell-based, Escherichia coli; settings: Escherichia coli, ATCC25922; standard strain, 18 h
E. cloacae 8 = test: MIC, twofold microdilution, clinical strain; format: cell-based, Escherichia cloacae; settings: Enterobacter cloacae, 8; clinical strain, 18 h
E. coli 520 = test: MIC, twofold microdilution, clinical strain; format: cell-based; settings: Escherichia coli, 18 h
[5] = system: S. epidermidis ATCC 12228; test: MIC, twofold microdilution, standard strain; format: cell-based; settings: Staphylococcus epidermidis, ATCC12228, 18 h
[6] = system: M. tuberculosis Spec. 192; test: Tuberculostatic activity, Microplate Alamar Blue Assay (MIC); format: cell-based; settings: Mycobacterium tuberculosis, MABA, read-out: MIC M. tuberculosis Spec. 192 (sensitive to tuberculostatics)
[7] = system: clinical bacterial strains; test: MIC, clinical isolates as groups of strains; format: cell-based; settings: for share of the reference (CP) activity: S. aureus T5595 and T5591
S. aureus ATCC 6538 = test: MIC, twofold microdilution, standard strain; format: cell-based, Staphylococcus aureus; settings: Staphylococcus aureus, ATCC6538; standard strain, 18 h
P. aeruginosa 659 = test: MIC, twofold microdilution, clinical strain; format: cell-based; settings: Pseudomonas aeruginosa, 18 h
E. coli 951 = test: MIC, twofold microdilution, clinical strain; format: cell-based; settings: Escherichia coli, 18 h
K. pneumoniae 28 = test: MIC, twofold microdilution, clinical strain; format: cell-based; settings: Klebsiella pneumoniae, 18 h
M. tuberculosis H37Rv = test: Tuberculostatic activity, Microplate Alamar Blue Assay (MIC); format: cell-based, Mycobacterium tuberculosis; settings: Mycobacterium tuberculosis, H37RV; MABA; read-out: MIC M. tuberculosis H37Rv
P. aeruginosa 37 = test: MIC, twofold microdilution, clinical strain; format: cell-based; settings: Pseudomonas aeruginosa, 18 h
S. pasteuri KR 4358 = test: MIC, twofold microdilution, clinical strain; format: cell-based; settings: Staphylococcus pasteuri, KR4358, 18 h
K. pneumoniae 510 = test: MIC, twofold microdilution, clinical strain; format: cell-based, Klebsiella pneumoniae; settings: Klebsiella pneumoniae, 510; clinical strain, 18 h
S. aureus T5591 = test: MIC, twofold microdilution, clinical strain; format: cell-based, Staphylococcus aureus; settings: Staphylococcus aureus, T5591, 18 h
M. tuberculosis Spec 210 = test: microbe, parasite or virus in culture; format: cell-based, Mycobacterium tuberculosis; settings: M. tuberculosis Spec. 210

Structure (SMILES) | MIC (S. aureus ATCC 29213) | MIC (S. epidermidis 4341) | IC50 (PC3 cells) | MIC (S. aureus NCTC 4163) | MIC (S. aureus 5595) | MIC [2] | MIC (S. aureus 180) | MIC (E. coli 600) | MIC (S. aureus ATCC 25923) | IC50 at 72 h [3] | MIC (S. epidermidis KR4243/1) | MIC (S. aureus T5595) | MIC (S. epidermidis 5253) | MIC (P. aeruginosa ATCC 15442) | MIC (E. coli ATCC 25922) | MIC (E. cloacae 8) | MIC (E. coli 520) | MIC [5] | MIC [6] | MIC (S. aureus ATCC 6538) | also measured
O=C(O)c1cn(C2CC2)c2cc(N3CCN(C(=O)CCCCCCl)CC3)c(F)cc2c1=O [Compound 7, 7-[4-(6-Chlorohexanoyl)-piperazin-1-yl]-1-cyclopropyl-6-fluoro-4-oxo-1,4-dihydro-quinoline-3-carboxylic Acid] | 0.2 µg/mL (≈ 0.431 µM) | 25.6 µg/mL (≈ 55.2 µM) | > 100 µM | 0.2 µg/mL (≈ 0.431 µM) | 0.5 µg/mL (≈ 1.08 µM) | 0.2 µg/mL (≈ 0.431 µM) | 0.5 µg/mL (≈ 1.08 µM) | 6.4 µg/mL (≈ 13.8 µM) | 0.2 µg/mL (≈ 0.431 µM) | > 100 µM | 0.2 µg/mL (≈ 0.431 µM) | 0.4 µg/mL (≈ 0.862 µM) | > 25.6 µg/mL | 12.8 µg/mL (≈ 27.6 µM) | 0.8 µg/mL (≈ 1.72 µM) | 16 µg/mL (≈ 34.5 µM) | 6.4 µg/mL (≈ 13.8 µM) | 0.4 µg/mL (≈ 0.862 µM) | 0.5 µg/mL (≈ 1.08 µM) | 0.2 µg/mL (≈ 0.431 µM) | MIC [1]: ≤ 1 µg/mL; MIC [4]: 0.1 to 0.8 µg/mL (≈ 0.216 to 1.72 µM); share of the reference (CP) activity [7]: 62.5%; MIC (P. aeruginosa 659): > 25.6 µg/mL; MIC (E. coli 951): > 25.6 µg/mL; MIC (K. pneumoniae 28): > 25.6 µg/mL; MIC (M. tuberculosis H37Rv): 0.5 µg/mL (≈ 1.08 µM); MIC (P. aeruginosa 37): > 25.6 µg/mL; MIC (S. pasteuri KR 4358): 0.2 µg/mL (≈ 0.431 µM); MIC (K. pneumoniae 510): > 25.6 µg/mL; MIC (S. aureus T5591): 0.4 µg/mL (≈ 0.862 µM)
O=C(O)c1cn(C2CC2)c2cc(N3CCN(C(=O)CCCCCBr)CC3)c(F)cc2c1=O [Compound 12, 7-[4-(6-Bromohexanoyl)-piperazin-1-yl]-1-cyclopropyl-6-fluoro-4-oxo-1,4-dihydro-quinoline-3-carboxylic Acid] | 1.6 µg/mL (≈ 3.15 µM) | 64 µg/mL (≈ 126 µM) | 29.7 ± 5 µM | 0.8 µg/mL (≈ 1.57 µM) | 0.5 µg/mL (≈ 0.984 µM) | 0.8 µg/mL (≈ 1.57 µM) | 0.5 µg/mL (≈ 0.984 µM) | 0.4 µg/mL (≈ 0.787 µM) | 1.6 µg/mL (≈ 3.15 µM) | > 100 µM | 0.8 µg/mL (≈ 1.57 µM) | 0.8 µg/mL (≈ 1.57 µM) | > 25.6 µg/mL | 25.6 µg/mL (≈ 50.4 µM) | 1.6 µg/mL (≈ 3.15 µM) | > 25.6 µg/mL | 0.8 µg/mL (≈ 1.57 µM) | 1.6 µg/mL (≈ 3.15 µM) | 1 µg/mL (≈ 1.97 µM) | 1.6 µg/mL (≈ 3.15 µM) | MIC [4]: 0.8 to 1.6 µg/mL (≈ 1.57 to 3.15 µM); MIC ([7]; clinical strains, read-out: MIC against selected E. coli and E. cloacae strains): 0.1 to 0.8 µg/mL (≈ 0.197 to 1.57 µM); MIC (P. aeruginosa 659): > 25.6 µg/mL; MIC (E. coli 951): > 25.6 µg/mL; MIC (K. pneumoniae 28): > 25.6 µg/mL; MIC (M. tuberculosis H37Rv): 1 µg/mL (≈ 1.97 µM); MIC (P. aeruginosa 37): > 25.6 µg/mL; MIC (S. pasteuri KR 4358): 0.8 µg/mL (≈ 1.57 µM); MIC (K. pneumoniae 510): > 25.6 µg/mL; MIC (S. aureus T5591): 0.8 µg/mL (≈ 1.57 µM)
O=C(O)c1cn(C2CC2)c2cc(N3CCN(C(=O)CCCCCCCCCCBr)CC3)c(F)cc2c1=O [Compound 13, 7-[4-(11-Bromoundekanoyl)-piperazin-1-yl]-1-cyclopropyl-6-fluoro-4-oxo-1,4-dihydro-quinoline-3-carboxylic Acid] | 12.8 µg/mL (≈ 22.1 µM) | > 25.6 µg/mL | 33.7 ± 8.2 µM | 6.4 µg/mL (≈ 11.1 µM) | > 25.6 µg/mL | 12.8 µg/mL (≈ 22.1 µM) | > 25.6 µg/mL | > 25.6 µg/mL | 12.8 µg/mL (≈ 22.1 µM) | 93.4 ± 10.1 µM | > 25.6 µg/mL | > 25.6 µg/mL | > 25.6 µg/mL | > 25.6 µg/mL | 25.6 µg/mL (≈ 44.3 µM) | > 25.6 µg/mL | > 25.6 µg/mL | 12.8 µg/mL (≈ 22.1 µM) | 4 µg/mL (≈ 6.91 µM) | 12.8 µg/mL (≈ 22.1 µM) | fold more effective than the reference tuberculostatics (M. tuberculosis Spec 210): 8–32 fold; MIC (P. aeruginosa 659): > 25.6 µg/mL; MIC (E. coli 951): > 25.6 µg/mL; MIC (K. pneumoniae 28): > 25.6 µg/mL; MIC (M. tuberculosis H37Rv): 2 µg/mL (≈ 3.46 µM); MIC (P. aeruginosa 37): > 25.6 µg/mL; MIC (S. pasteuri KR 4358): > 25.6 µg/mL; MIC (K. pneumoniae 510): > 25.6 µg/mL; MIC (S. aureus T5591): > 25.6 µg/mL
O=C(O)c1cn(C2CC2)c2cc(N3CCN(C(=O)CCCC(F)(F)F)CC3)c(F)cc2c1=O [Compound 16, 7-[4-(5,5,5-Trifluoropentanoyl)-piperazin-1-yl]-1-cyclopropyl-6-fluoro-4-oxo-1,4-dihydro-quinoline-3-carboxylic Acid] | 0.2 µg/mL (≈ 0.426 µM) | 25.6 µg/mL (≈ 54.5 µM) | 68.8 ± 9.9 µM | 0.2 µg/mL (≈ 0.426 µM) | 1 µg/mL (≈ 2.13 µM) | 0.2 µg/mL (≈ 0.426 µM) | 1 µg/mL (≈ 2.13 µM) | 6.4 µg/mL (≈ 13.6 µM) | 0.2 µg/mL (≈ 0.426 µM) | > 100 µM | 0.4 µg/mL (≈ 0.852 µM) | 0.4 µg/mL (≈ 0.852 µM) | > 25.6 µg/mL | 1 µg/mL (≈ 2.13 µM) | 1.6 µg/mL (≈ 3.41 µM) | 8 µg/mL (≈ 17 µM) | 3.2 µg/mL (≈ 6.82 µM) | 0.2 µg/mL (≈ 0.426 µM) | 64 µg/mL (≈ 136 µM) | 0.2 µg/mL (≈ 0.426 µM) | MIC [4]: 0.2 µg/mL (≈ 0.426 µM); share of the reference (CP) activity [7]: 62.5%; MIC (P. aeruginosa 659): > 25.6 µg/mL; MIC (E. coli 951): > 25.6 µg/mL; MIC (K. pneumoniae 28): > 25.6 µg/mL; MIC (M. tuberculosis H37Rv): 64 µg/mL (≈ 136 µM); MIC (P. aeruginosa 37): > 25.6 µg/mL; MIC (S. pasteuri KR 4358): 0.4 µg/mL (≈ 0.852 µM); MIC (K. pneumoniae 510): > 25.6 µg/mL; MIC (S. aureus T5591): 0.4 µg/mL (≈ 0.852 µM)
